Molecular target: T1, CCXCKR2 receptor (Homo sapiens, UniProt P25106)
T1 construct: host or cells: MCF-7 (endogenous) and/or MDA-MB-435S transfected with hRDC1 in pcDNA3.1(+)
Experiment: Displacement of 125I-labeled SDF-1 from the CCXCKR2 receptor (radioligand binding, determination of IC50 values)
Conditions: not given
Experimental: The ability of the compounds to displace the labeled chemokine from the CCXCKR2 receptor sites at multiple concentrations was then determined with the screening process.
Compounds that were deemed effective modulators were able to displace at least 50% of the SDF-1 from the CCXCKR2 receptor at concentrations at or below 10 micromolar (μM) and more preferably at concentrations at or below 2 micromolar. At present, especially preferred compounds can displace at least 50% of the SDF-1 from the CCXCKR2 receptor at concentrations at or below 500 nM. Exemplary compounds that met these criteria are reproduced in Table B below. All compounds were prepared as described in the Examples above, or by related methods substituting readily available starting materials.
Reagents and Cells. ^125I-labeled SDF-1 was purchased from Perkin-Elmer Life Sciences, Inc. (Boston, Mass.). The MCF-7 (adenocarcinoma; mammary gland) cell line was obtained from the American Type Culture Collection (Manassas, Va.) or and was cultured in DMEM (Mediatech, Herndon, Va.) supplemented with 10% fetal bovine serum (FBS) (HyClone Logan, Utah) and bovine insulin (0.01 mg/mL) (Sigma, St. Louis, Mo.) at 37° C. in a humidified incubator at a 5% CO2/air mixture. CCXCKR2 transfected MDA-MB-435S were produced as described below. MDA-MB-435S human breast cancer line, was purchased from ATCC, and cultured in DMEM/10% FBS medium. The complete coding sequence of the gene encoding CCXCKR2 (a.k.a.CXCR7, hRDC1), was isolated from MCF-7 cells using μMACs mRNA isolation kit (Miltenyi Biotec, Auburn, Calif.). DNA contamination was removed by DNase digestion via RNeasy columns (Qiagen, Inc., Valencia, Calif.) and cDNA was generated using GeneAmp RNA PCR Core Kit (Applied Biosystems, Foster City, Calif.). PCR of cDNA samples was performed using Taq PCR Master Mix kit (Qiagen, Inc.) and hRDC1 primers harboring 5′ and 3′ Not I sites (hRDC1F 5′-[…]-3′ (SEQ ID NO:1), hRDC1R 5′-[…]-3′ (SEQ ID NO:2)) Not I digested PCR product was ligated into Not I digested pcDNA3.1(+)(Invitrogen, Carlsbad, Calif.) and screened for orientation and sequence confirmed. Plasmid DNA was then isolated from overnight bacterial cultures by Maxiprep (Qiagen, Inc.). Plasmid DNA (10 μg) was added to MDA-MB-435s cells and cells were electroporated (0.22 kV, 960 uF) via Gene Pulser (Biorad laboratories, Hercules, Calif.). 48 hr post-electroporation, cells were transferred to selection medium (1000 ug/ml G418).
Binding Analysis. Target compounds were tested to determine their ability to bind with CCXCKR2 sites on MCF-7 and/or MDA-MB-435S cells. Efficiency-maximized radioligand binding using filtration protocols as described in Dairaghi D J, et al., HHV8-encoded vMIP-I selectively engages chemokine receptor CCR5. Agonist and antagonist profiles of viral chemokines., J. Biol. Chem. 1999 Jul. 30; 274(31): 21569-74 and Gosling J, et al., Cutting edge: identification of a novel chemokine receptor that binds dendritic cell-and T cell-active chemokines including ELC, SLC, and TECK., J. Immunol. 2000 Mar. 15; 164(6):2851-6 was used.
In these assays, MCF-7 and/or MDA-MB-435S cells were interrogated with the target compounds and the ability of these compounds to displace ^125I radiolabeled SDF-1 was assessed using the protocol described in Dairaghi and Gosling. The target compounds were added to the plate to the indicated concentration and were then incubated with cells followed by the addition of radiolabeled chemokine (^125I SDF-1) for 3 hr at 4° C. in the following binding medium (25 mM HEPES, 140 mM NaCl, 1 mM CaCl2, 5 mM MgCl2 and 0.2% bovine serum albumin, adjusted to pH 7.1). All assays were then incubated for 3 hrs at 4° C. with gentle agitation. Following incubation in all binding assays, reactions were aspirated onto PEI-treated GF/B glass filters (Packard) using a cell harvester (Packard) and washed twice (25 mM HEPES, 500 mM NaCl, 1 mM CaCl2, 5 mM MgCl2, adjusted to pH 7.1). […]

T1 sequence (P25106 whole entry): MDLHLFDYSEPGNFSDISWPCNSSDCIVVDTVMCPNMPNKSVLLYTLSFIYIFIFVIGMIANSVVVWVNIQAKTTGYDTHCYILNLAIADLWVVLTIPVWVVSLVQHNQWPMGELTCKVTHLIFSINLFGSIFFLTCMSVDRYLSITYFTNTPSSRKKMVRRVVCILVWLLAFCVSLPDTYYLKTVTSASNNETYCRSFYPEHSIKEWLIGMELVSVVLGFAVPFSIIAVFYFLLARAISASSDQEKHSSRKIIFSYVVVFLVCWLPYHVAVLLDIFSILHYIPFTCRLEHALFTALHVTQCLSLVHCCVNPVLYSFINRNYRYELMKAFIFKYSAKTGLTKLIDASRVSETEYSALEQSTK

Row | Compound | IC50 [nM]
1 | COc1cc(C(=O)N(Cc2cc3ccccc3cn2)C[C@@H]2CCCN2C[C@@H]2C[C@H]3CC[C@@H](C2)N3)cc2c1OC(C)(C)O2 [Example 63, 7-Methoxy-2,2-dimethyl-benzo[1,3]dioxole-5-carboxylic acid {(S)-1-[(1S,3S,5R)-1-(8-aza-bicyclo[3.2.1]oct-3-yl)methyl]-pyrrolidin-2-ylmethyl}-isoquinolin-3-ylmethyl-amide] | < 500

Same assay, conditions: MCF-7 and/or MDA-MB-435S cells expressing CCXCKR2; 125I SDF-1; 3 hr at 4° C.; read-out: Activity (ability to displace 125I SDF-1 from CCXCKR2)

Row | Compound | IC50 [nM]
2 | COc1cc(C(=O)N(Cc2nc(-c3ccccc3)cs2)C[C@@H]2CCCN2C2CCC2)cc2c1OC(C)(C)O2 [Example 50, 7-Methoxy-2,2-dimethyl-benzo[1,3]dioxole-5-carboxylic acid ((S)-1-cyclobutyl-pyrrolidin-2-ylmethyl)-(4-phenyl-thiazol-2-ylmethyl)-amide] | < 500
3 | COc1ccc(C(=O)N(C[C@@H]2CCCN2)c2cccc(-c3ccccc3)c2)cc1OC [Example 21] | < 2000
4 | COc1ccc(C(=O)N(Cc2cc3ccccc3o2)C[C@@H]2CCCN2CC2CCCCC2)cc1OC [Example 3, N-benzofuran-2-ylmethyl-N—(S)-(1-cyclohexylmethyl-pyrrolidin-2-ylmethyl)-3,4-dimethoxy-benzamide] | < 500
5 | COc1cc(C(=O)N(Cc2cc3cc(Cl)ccc3o2)C[C@@H]2CCCN2)ccc1OC(F)F | < 500
6 | COc1cc(C(=O)N(CCC2CCCN2C)Cc2cnc3ccccc3c2)cc(OC)c1OC (stereo not drawn) [Example 10] | < 10000
7 | COc1cc(C(=O)N(CCCN2CCCCC2C)c2ccc3ccccc3c2)cc(OC)c1OC (stereo not drawn) [Example 20, 3,4,5-Trimethoxy-N-[3-(2-methyl-piperidin-1-yl)-propyl]-N-naphthalen-2-yl-benzamide] | < 2000
8 | COc1cc(C(=O)N(C[C@@H]2CCCN2)c2cccc(-c3ccccc3)c2)ccc1OC(F)F [Example 31, N-Biphenyl-3-yl-4-difluoromethoxy-3-methoxy-(S)—N-pyrrolidin-2-ylmethyl-benzamide] | < 500
9 | COc1cc(C(=O)N(Cc2cc3ccccc3cn2)C[C@@H]2CCCN2CC2CNC2)cc2c1OC(C)(C)O2 [Example 39, 7-Methoxy-2,2-dimethyl-benzo[1,3]dioxole-5-carboxylic acid ((S)-1-azetidin-3-ylmethyl-pyrrolidin-2-ylmethyl)-isoquinolin-3-ylmethyl-amide] | < 2000
10 | COc1cc(C(=O)N(Cc2cc3ccccc3o2)C[C@@H]2CCCN2CC2CCCCC2)cc(OC)c1OC [Example 4, N-Benzofuran-2-ylmethyl-N—(S)-(1-cyclohexylmethyl-pyrrolidin-2-ylmethyl)-3,4,5-trimethoxy-benzamide] | < 500
11 | COc1cc(C(=O)N(Cc2cc3ccccc3s2)C[C@@H]2C[C@@H]3CCCC[C@@H]3N2)cc2c1OC(C)(C)O2 [Example 61, 7-Methoxy-2,2-dimethyl-benzo[1,3]dioxole-5-carboxylic acid benzo[b]thiophen-2-ylmethyl-[(2S,3aS,7aS)-1-(octahydro-indol-2-yl)methyl]-amide] | < 500
12 | COc1ccc(C(=O)N(C[C@@H]2CCCN2CCO)c2cccc(-c3ccccc3)c2)cc1OC [Example 22, N-Biphenyl-3-yl-(S)—N[1-(2-hydroxy-ethyl)-pyrrolidin-2ylmethyl]-3,4-dimethoxy-benzamide] | < 500
13 | COc1cc(C(=O)N(Cc2cnc3ccccc3n2)C[C@@H]2C[C@@H]3CCCC[C@@H]3N2)cc2c1OC(C)(C)O2 [Example 68, 7-Methoxy-2,2-dimethyl-benzo[1,3]dioxole-5-carboxylic acid [(2S,3aS,7aS)-1-(octahydro-indol-2-yl)methyl]-quinoxalin-2-ylmethyl-amide] | < 500
14 | COCCOCCN1CCC[C@H]1CN(Cc1ccc2ccccc2n1)C(=O)c1cc(OC)c2c(c1)OC(C)(C)O2 [Example 47, 7-Methoxy-2,2-dimethyl-benzo[1,3]dioxole-5-carboxylic acid {(S)-1-[2-(2-methoxy-ethoxy)-ethyl]-pyrrolidin-2-ylmethyl}-quinolin-2-ylmethyl-amide] | < 500
15 | COc1cc(C(=O)N(C[C@@H]2CCCN2CC2CCCCC2)c2cccc(-c3ccccc3)c2)ccc1OC(F)F [Example 33, N-biphenyl-3-yl-(S)—N-(1-cyclohexylmethyl-pyrrolidin-2-ylmethyl)-4-difluoromethoxy-3-methoxy-benzamide] | < 500

More lines, now with the values ahead:

Row | IC50 [nM] | Compound
16 | < 10000 | COc1ccc(C(=O)N(C[C@@H]2CCCN2CC2CC2)c2cccc(-c3cccc(C#N)c3)c2)cc1OC [Example 34, N-(3′-Cyano-biphenyl-3-yl)-(S)—N-(1-cyclopropylmethyl-pyrrolidin-2-ylmethyl)-3,4-dimethoxy-benzamide]
17 | < 500 | COc1cc(C(=O)N(Cc2nc(-c3ccccc3)c(C(F)(F)F)s2)C[C@@H]2C[C@@H]3CCCC[C@@H]3N2)cc2c1OC(C)(C)O2 [Example 77, 7-Methoxy-2,2-dimethyl-benzo[1,3]dioxole-5-carboxylic acid [(2S,3aS,7aS)-1-(octahydro-indol-2-yl)methyl]-(4-phenyl-5-trifluoromethyl-thiazol-2-ylmethyl)-amide]
18 | < 2000 | COc1cc(C(=O)N(CCCN2CCCCC2C)Cc2ncc(-c3ccccc3)s2)cc(OC)c1OC (stereo not drawn) [Example 19, 3,4,5-Trimethoxy-N-[3-(2-methyl-piperidin-1-yl)-propyl]-N-(5-phenyl-thiazol-2-ylmethyl)-benzamide]
19 | < 500 | COc1cc(C(=O)N(Cc2ccc3cccnc3n2)C[C@@H]2C[C@@H]3CCCC[C@@H]3N2)cc2c1OC(C)(C)O2 [Example 42, 7-Methoxy-2,2-dimethyl-benzo[1,3]dioxole-5-carboxylic acid [1,8]naphthyridin-2-ylmethyl-[(2S,3aS,7aS)-1-(octahydro-indol-2-yl)methyl]-amide]
20 | < 500 | COc1ccc(C(=O)N(Cc2nc3ccccc3s2)C[C@@H]2CCCN2C(C)C)cc1OC [Example 28, N-Benzothiazol-2-yl methyl-(S)—N-(1-isopropyl-pyrrolidin-2-ylmethyl)-3,4-dimethoxy-benzamide]
21 | < 10000 | CCOC(=O)c1ccc(-c2cccc(N(C[C@@H]3CCCN3CC3CC3)C(=O)c3ccc(OC)c(OC)c3)c2)cc1 [Example 36, (S)-3′-[(1-Cyclopropylmethyl-pyrrolidin-2-ylmethyl)-(3,4-dimethoxy-benzoyl)-amino]-biphenyl-4-carboxylic acid ethyl ester]
22 | < 10000 | COc1cc(C(=O)N(Cc2ccc3ccccc3[n+]2[O-])C[C@@H]2CCCN2C2CCC2)cc2c1OC(C)(C)O2 [Example 69, 7-Methoxy-2,2-dimethyl-benzo[1,3]dioxole-5-carboxylic acid ((S)-1-cyclobutyl-pyrrolidin-2-ylmethyl)-(1-oxy-quinolin-2-ylmethyl)-amide]
23 | < 500 | COc1ccc(C(=O)N(C[C@@H]2CCCN2CC2CCCCC2)c2cccc(-c3ccccc3)c2)cc1OC [Example 24, N-biphenyl-3-yl-(S)—N-(1-cyclohexylmethyl-pyrrolidin-2-ylmethyl)-3,4-dimethoxy-benzamide]
24 | < 500 | COc1cc(C(=O)N(CCC2CCCN2C)Cc2cc3ccccc3n2C)cc(OC)c1OC (stereo not drawn)

Source: patent US7417062B2, “Substituted arylamides” (ChemoCentryx, Inc., priority 2004, dated 2008)
